Reference: article PMC7910576, “Marine furanocembranoids-inspired macrocycles enabled by Pd-catalyzed unactivated C(sp^3)-H olefination mediated by donor/donor carbenes” (Nature Communications, 2021)

Tests used:
TNF-α = test: LPS-induced TNF-α production in RAW264.7 macrophages (ELISA); assay type: cell-based; conditions: Mus musculus, LPS 5 μg/mL, 24 h
Protocol: (§1) RAW264.7 cell, a murine macrophage cell line, was purchased from American Type Culture Collection (ATCC, Manassas, VA, USA). Cells were grown in Dulbecco’s Modified Eagle Media (DMEM) containing 10% fetal bovine serum, 2 mM L-glutamine, 100 U/mL penicillin, and 100 μg/mL streptomycin and were maintained at 37 °C in a humidified incubator of 5% CO2.
(§2) RAW264.7 cells (1 × 10^5/well) were seeded into 96-well plates in triplicate and were treated with DMEM media only or 5 μg/mL of LPS or with indicated concentrations of compounds for 24 h. Supernatants were collected and then quantified with the mouse TNF-α, IL-6, and IL-1β ELISA kits following the manufacturer’s instructions.

IL-6 = test: LPS-induced IL-6 production in RAW264.7 macrophages (ELISA); assay type: cell-based, mouse; conditions: for IC50: Mus musculus, RAW264.7 macrophages, LPS 5 μg/mL, 24 h; for potency of inhibitory activity on IL-6 relative to Dexamethasone: compared with Dexamethasone
Protocol: as §1, §2

IL-1β = test: LPS-induced IL-1β production in RAW264.7 macrophages (ELISA); assay type: cell-based; conditions: Mus musculus, LPS 5 μg/mL, 24 h
Protocol: as §1, §2

[1] = Cell viability assay (MTT) in RAW264.7 cells; assay type: cell-based, mouse; conditions: mouse, RAW264.7 macrophage cells; RAW264.7 cells, 24 h, MTT; read-out: Cytotoxicity CC50
Protocol: as §1
(§3) RAW264.7 cells (1 × 10^5/well) were seeded into 96-well plates in triplicate and were treated with DMEM media or indicated concentrations of compounds for 24 h. MTT solution was added to each well at a final concentration of 0.5 mg/ml and incubated for 4 h before the end of the culture. The quantity of formazan is measured at 570 nm with a microplate reader (Molecular Devices, Sunnyvale, CA, USA) and the cell viability was calculated.

RAW264.7 cells = test: Cell viability assay (MTT) in RAW264.7 cells; assay type: cell-based, mouse; conditions: at the indicated concentrations, compared to Dexamethasone
Protocol: as §1, §3

NF-κB signaling pathway = test: Western blotting of LPS-induced NF-κB signaling pathway activation in RAW264.7 cells; assay type: cell-based, mouse; conditions: Western blot
Protocol: as §1
RAW264.7 cells (6 × 10^5/well) were seeded into 24-well plates and treated with DMEM media only or 5 μg/mL of LPS or with indicated concentrations of compounds for 24 h. Cells were lysed in sodium dodecyl sulfate (SDS) sample buffer containing protease inhibitor cocktail (Roche Life Science, Mannheim, Germany). The resulted proteins were resolved by SDS-polyacrylamide gel electrophoresis and then subjected to the following antibodies: anti-mouse IKK-α, anti-mouse phospho-IKK-α, anti-mouse IκB-α, anti-mouse NF-κB p65, anti-mouse phospho-NF-κB p65 antibodies (Cell Signaling Technology, Beverly, MA), and HRP-conjugated mouse anti-GAPDH (Kangcheng, Shanghai, China). Signals were detected with an HRP-conjugated anti-rabbit IgG (Bio-Rad, Richmond, CA, USA) using an ECL system (Amersham Biosciences, Buckinghamshire, UK). The uncropped and unprocessed scans of indicated blots were supplied as Supplementary Figure 99 in the Supplementary Information.

SMILES	IC50 (TNF-α)	IC50 (IL-6)	IC50 (IL-1β)	CC50 at 24 h [1]	potency of inhibitory activity on IL-6 relative to Dexamethasone (IL-6)	cytotoxicity (in words) (RAW264.7 cells)	degradation of IκB-α (NF-κB signaling pathway)	phosphorylation of IKK-α (NF-κB signaling pathway)	phosphorylation of NF-κB (NF-κB signaling pathway)
Cc1oc2cc1C(=O)NCCCCCCCCCCCC(=O)N[C@@H](C)C(=O)Nc1ccc(cc1)C(C)(C)/C=C\2C(C)(C)C [6b]	2.15 µM	7.28 µM	3.4 µM	39.7 µM	–	–	–	–	–
Cc1oc2cc1C(=O)NCCCCCCCCCCCC(=O)N[C@@H](C(C)C)C(=O)Nc1ccc(cc1)C(C)(C)/C=C\2C(C)(C)C [6c]	11.5 µM	10.5 µM	4.38 µM	154 µM	–	–	–	–	–
Cc1oc2cc1C(=O)NCCCCCCCCCCCC(=O)N1CCC[C@H]1C(=O)Nc1ccc(cc1)C(C)(C)/C=C\2C(C)(C)C [6d]	107 µM	196 µM	17.6 µM	27.7 µM	–	–	–	–	–
Cc1oc2cc1C(=O)NCCCCCCCCCCCC(=O)Nc1ccc(cc1)C(C)(C)/C=C\2C(C)(C)C [6g]	0.45 µM	1.59 µM	0.59 µM	> 250 µM	approximately ten times more potent	did not show obvious cytotoxicity	abrogate	abrogate	suppressed by 6g in a concentration-dependent manner
Cc1oc2cc1C(=O)N[C@@H](C(C)C)C(=O)NCCCCCCCCCCCC(=O)Nc1ccc(cc1)C(C)(C)/C=C\2C(C)(C)C [6h]	56.4 µM	0.95 µM	0.0041 µM	56.4 µM	approximately ten times more potent	did not show obvious cytotoxicity	–	–	–

Continued, in another order:

IC50 (TNF-α)	IC50 (IL-6)	IC50 (IL-1β)	SMILES	CC50 at 24 h [1]	potency of inhibitory activity on IL-6 relative to Dexamethasone (IL-6)	cytotoxicity (in words) (RAW264.7 cells)	degradation of IκB-α (NF-κB signaling pathway)	phosphorylation of IKK-α (NF-κB signaling pathway)	phosphorylation of NF-κB (NF-κB signaling pathway)
> 250 µM	53.6 µM	12.8 µM	Cc1oc2cc1C(=O)NCCCCCCCCCCCC(=O)N[C@@H](Cc1ccccc1)C(=O)Nc1ccc(cc1)C(C)(C)/C=C\2C(C)(C)C [6a]	152 µM	–	–	–	–	–
> 250 µM	80.8 µM	3.05 µM	Cc1oc2cc1C(=O)NCCCCCCCCCCCC(=O)N[C@@H](C(C)C)C(=O)N[C@@H](Cc1ccccc1)C(=O)Nc1ccc(cc1)C(C)(C)/C=C\2C(C)(C)C [6e]	> 250 µM	–	–	–	–	–
10 µM	29.5 µM	8.61 µM	CSCC[C@@H]1NC(=O)CCCCCCCCCCCNC(=O)c2cc(oc2C)/C(C(C)(C)C)=C\C(C)(C)c2ccc(cc2)NC(=O)[C@H](Cc2ccccc2)NC1=O [6f]	214 µM	–	–	–	–	–
